The results in this text go back to patent publication US20150366839A1, “Schisantherin A for the treatment of neurodegenerative diseases” (priority 2014, published 2015).

The subject of test [1] is intracellular NO in SH-SY5Y cells. Briefly: 6-OHDA-induced NO production (DAF-FM diacetate). It counts as cell-based, Human. The protocol:
Intracellular NO was evaluated by using the fluorescent probe 4-amino-5-methylamino-2′,7′-difluorofluoresecin diacetate (DAF-FM diacetate), which is cell-permeant and diffuses passively across cellular membranes. Once inside the cells, DAF-FM diacetate is deacetylated by intracellular esterases to DAF-FM. DAF-FM is essentially non-fluorescent until DAF-FM reacts with NO. Thus, it can be used to quantify intracellular NO production. The cells were seeded in 96-well, black bottom-clear plates. […] The cells were then washed twice in PBS and the fluorescence was evaluated in a multi-label counter at an excitation wavelength of 495 nm and an emission wavelength of 515 nm. The increase in fluorescence for each treatment was calculated as the relative fluorescence of each treatment compared with the untreated control cells.
Augmented NO production subsequent to iNOS induction appears to play an important role in the initial phase of 6-OHDA-induced neuro-damage models in vitro and in vivo (Singh, Das et al. 2005; Lin, Uang et al. 2007; Shih, Chen et al. 2011). […] Expression of the total iNOS proteins were determined by Western blot analysis. […] Results of FIGS. 4A-C are expressed as a percentage of relative fluorescent intensity (RFI) of the Control group. ###P<0.005 versus control group; *p<0.05, **p<0.01 and *** p<0.005 versus 6-OHDA group.

A further test relates to DA neurons in zebrafish. As to the kind of experiment: Anti-TH whole-mount immunostaining, 6-OHDA-induced DA neuron loss. It counts as in vivo. The conditions noted are these: 10 μM co-treatment, 250 μM 6-OHDA, 2 days. The protocol: The wild type zebrafish was used for this study.
Zebrafish at one dpf were exposed to 250 μM 6-OHDA in the presence or absence of 10 μM Schi A or 3 μM nomifensine (Nom, a DAT (dopamine transporter) inhibitor used as a positive control) for 2 days. Then zebrafish were collected for immunostaining to detect the DA neurons. Zebrafish were fixed in 4% paraformaldehyde in PBS for 30 min, rinsed, and stored at −20° C. in 100% MtOH. Whole-mount immunostaining was done by standard methods (Zhang, Cheang et al. 2011). Briefly, paraformaldehyde fixed samples were blocked (2% goat serum and 0.1% BSA in PBST,) for 1 h at room temperature. A mouse monoclonal anti-tyrosine hydroxylase antibody (1:200 diluted in blocking buffer) was used as the primary antibody and incubated overnight with the sample at 4° C. […] Semi-quantification TH^+ cells were assessed by an investigator blinded to drug treatment history of zebrafish using Image-Pro Plus 6.0 software (Media Cybernetics, Silver Spring, Md., USA). Results are expressed as percentage of area of TH^+ cells in untreated control group.
To further evaluate the neuroprotective effect of SchiA in vivo, the inventors examined the DA neurons in zebrafish by whole-mount immunofluorescent staining with an antibody against tyrosine hydroxylase (TH). […] Data is expressed as percentage of the control group. […]

For the next test, the system named is caspase-7. As to the kind of experiment: MPP+-induced caspase-7 activation, Western blot. It counts as cell-based, Human. The conditions noted are these: 60 μM 12 h, then 2 mM MPP+ 36 h. The protocol: (§1) After treatment, SH-SY5Y cells were washed three times with PBS and then lysis with RIPA lysis buffer containing 1% PMSF and 1% Protease Inhibitor Cocktail and incubated for 30 min on ice. Cell lysates were centrifuged at 12,500 g for 20 min at 4° C. The supernatant was separated and the amount of protein was determined using the BCA protein assay kit (Thermo Scientific Pierce, USA). Protein samples (30 μg) were separated by SDS-PAGE (10% (w/v)) polyacrylamide gel and then transferred to a polyvinylidene difluoride (PVDF) membrane (Bio-Rad, Hercules, Calif.). Subsequently, the membrane was blocked with 5% (v/v) non-fat milk in PBST (PBS containing 0.1% Tween 20) for 1 h at room temperature. The blots were incubated overnight at 4° C. with primary antibodies. After three washes with PBST, the membranes were incubated with horseradish peroxidase-conjugated secondary antibodies (1:2000) in PBST with 5% non-fat milk for 1 h at room temperature. […] Quantitative assessment of protein bands was done with Gel Doc™ XRS equipped with Quantity One software.
(§2) The inventors performed Western blot to measure the expression of active-form of caspase-3 and caspase-7 in SH-SY5Y cells. […] Caspase-3 activity was expressed as units per mg protein. ###p<0.005 versus control group; *p<0.05, **p<0.01 and *** p<0.005 versus MPP+ group.
On the technique in general: A western blot detects proteins with antibodies after separation by electrophoresis.

In another test the test system is caspase-3. As to the kind of experiment: MPP+-induced caspase-3 activation, Western blot. It counts as cell-based, Human. The conditions noted are these: 60 μM 12 h, then 2 mM MPP+ 36 h. The protocol:
as §1, §2

In another test the test system is zebrafish larvae. The conditions noted are these: 2.5-10 μM with 10 μM MPTP, 4 days, 10 min session.

Experimental for zebrafish larvae: The wild type zebrafish was used for this study. Embryos were collected after natural spawning, staged according to standard criteria and raised synchronously at 28.5° C. in embryo medium (13.7 mM NaCl, 540 μM KCl, pH 7.4, 25 μM Na2HPO4, 44 μM KH2PO4, 300 μM CaCl2, 100 μM MgSO4, 420 μM NaHCO3, pH 7.4). Zebrafish were staged by days post fertilization (dpf) according to criteria. […] Drugs (i.e. the five lignans) were dissolved in DMSO and directly added into the zebrafish embryo medium to treat fish. […] An equal concentration of DMSO in embryo medium was used as vehicle control in each experiment.
Then the total distance of movement was defined as the distance (in cm) was recorded using a 96-well plate filled with 200 μL embryo medium in a 10 minutes long session. Zebrafish were allowed to accommodate to the environment of the system for 1 hour before the start of the data acquisition.
In this study, Zebrafish larvae at 3 dpf were exposed to 2.5-10 μM SchiA with or without 10 μM MPTP for another 4 days, and zebrafish larval co-treated with MPTP and 150 μM L-dopa or 3 μM NOM (Nomifensine) were used as positive controls. After treatment, zebrafish were collected to perform locomotion behavior test using Viewpoint Zebrabox system and total distances travelled in 10 min were calculated. […]

Turning to `COc1cc2c(c(OC)c1OC)-c1c(cc3c(c1OC)OCO3)C[C@H](C)[C@](C)(O)[C@H]2OC(=O)c1ccccc1` [SchiA, Schisantherin A], in test [1] (60 μM 12 h, then 400 μM 6-OHDA 2 h), the “6-OHDA-induced increase in DAF-FM fluorescence (NO)” value is “inhibited such increase in DAF-FM fluorescence”. Besides, in test [1] (60 μM, without 6-OHDA), the “DAF-FM fluorescence intensity, compound alone” value is recorded as “no effect”. The “6-OHDA-induced dopaminergic neuron loss (area of TH+ cells)” value with DA neurons in zebrafish is “attenuate the dopaminergic neuron loss induced by 6-OHDA almost to the normal level”. For the same compound, in the test on caspase-7, the “MPP+-induced caspase-7 activation (active form)” value was “significant decrease”. For the same compound, the “MPP+-induced caspase-3 activation (active form)” value with caspase-3 is given as “significant decrease”. Also, the “MPTP-induced reduction of total distance of movement” value in the test on zebrafish larvae is reported as “inhibited MPTP-induced reduction of total distance of movement in zebrafish in a dose dependent manner”.
